Results published in patent US8058243B2, “Method for treating a brain cancer with ifenprodil” (HSC Research and Development Limited Partnership, priority 2006, dated 2011).
Where a name gives a salt, the structure may show the parent alone. Read-outs that look alike come from different tables or passages of the source.

Test system: murine neural precursor cells (neurosphere cultures)
Experiment: HTS of LOPAC library against secondary neurosphere cultures, MTT proliferation assay at 3 μM, day 7 (z score, P value)
Assay type: cell-based, mouse
[1] = yes/no: significantly inhibited neurosphere proliferation (P<0.01) in the primary screen
[2] = LOPAC primary screen, neurosphere MTT proliferation, 3 μM, day 7
[3] = yes/no: significantly inhibited neurosphere proliferation in primary screen
[4] = LOPAC library screen at 3 μM, secondary neurosphere cultures, MTT
[5] = LOPAC screen, neurosphere MTT proliferation, 3 μM, day 7
[6] = yes/no: significantly inhibited neurosphere proliferation (P<0.01) in primary screen
[7] = yes = significantly inhibited neurosphere proliferation (P<0.01) in the primary screen
[8] = LOPAC library screen, 3 μM, MTT, neurosphere cultures
[9] = primary LOPAC screen, 3 μM, MTT, neurosphere proliferation
[10] = yes/no: significantly inhibited neurosphere proliferation in the primary screen
[11] = LOPAC library screen, 3 μM, MTT, secondary neurosphere cultures, day 7
[12] = LOPAC library screen at 3 μM, MTT, secondary neurosphere cultures, screened in singlets

## Nc1nc(Nc2ccccc2)nc2c1ncn2[C@@H]1O[C@H](CO)[C@@H](O)[C@H]1O [2-Phenylaminoadenosine]
168 h, 3 µM
  Z Score: 0.5728
  Z score: 0.573
[1]
  Activity: no

## Cl.NCCNC(=O)c1ncsc1-c1cccc(F)c1 [Ro 41-1049 hydrochloride]
  Z Score: 1.328
[2]
  Z score: 1.328
[3]
  Activity: no

## NC(CCP(=O)(O)O)C(=O)O (stereo not drawn) [(B1)-2-Amino-4-phosphonobutyric acid]
  Z Score: 1.893

## C[N+](C)(C)CCOP(=O)([O-])OP(=O)([O-])OC[C@H]1O[C@@H](n2ccc(N)nc2=O)[C@H](O)[C@@H]1O.[Na+] [Citicoline sodium]
[4]
  Z Score: −0.1331
[5]
  Z score: −0.133
[6]
  Activity: no

## Br.Cc1cccc(C2CN(C)CCc3c2cc(O)c(O)c3Cl)c1 (stereo not drawn) [SKF 83959 hydrobromide]
  Z Score: −1.357
[2]
  Z score: −1.357
[3]
  Activity: no

## CCCCCCCC/C=C\CCCCCCCC(=O)O [Oleic Acid]
[4]
  Z Score: −0.3449

## O=C(O)CP(=O)(O)O [Phosphonoacetic acid]
[4]
  Z Score: −0.8885
[2]
  Z score: −0.888
[3]
  Activity: no

## Cl.O=C(CCCN1CCC2(CC1)C(=O)N(CCc1ccc(N=C=S)cc1)CN2c1ccccc1)c1ccc(F)cc1
[4]
  Z Score: −0.4152
[2]
  Z score: −0.415
[7]
  Activity: no

## N[C@@H](Cc1c[nH]c2ccccc12)C(=O)O [L-Tryptophan]
  Activity: no
  Z Score: 0.2241
  Z score: 0.224

## Oc1cccc2c(O)nccc12 [1,5-Isoquinolinediol]
[8]
  Z Score: 0.02674
[2]
  Z score: 0.027
[6]
  Activity: no

## C#CC(N)CCC(=O)O (stereo not drawn) [gamma-Acetylinic GABA]
  Z Score: 1.285
[9]
  Z score: 1.285
[10]
  Activity: no

## Br.Br.C=CCN1CCc2c(cc(O)c(O)c2Cl)C(c2ccccc2)C1 (racemic) [(±)-Chloro-APB dihydrobromide]
[5]
  Z score: −0.111
[6]
  Activity: no

## CC(=O)c1ccc(S(=O)(=O)NC(=O)NC2CCCCC2)cc1 [Acetohexamide]
[11]
  Z Score: −2.24
[9]
  Z score: −2.240
[10]
  Activity: no

## C[N+]1(CCCCC[N+]2(C)CCCC2)CCCC1.O=C([O-])C(O)C(O)C(=O)O.O=C([O-])C(O)C(O)C(=O)O [Pentolinium di[L(+)-tartrate]]
[8]
  Z Score: 0.1662
[2]
  Z score: 0.166
[3]
  Activity: no

## Cc1ccc(C(=O)Nc2ccc(S(=O)(=O)[O-])c3cc(S(=O)(=O)[O-])cc(S(=O)(=O)[O-])c23)cc1NC(=O)c1cccc(NC(=O)Nc2cccc(C(=O)Nc3cc(C(=O)Nc4ccc(S(=O)(=O)[O-])c5cc(S(=O)(=O)[O-])cc(S(=O)(=O)[O-])c45)ccc3C)c2)c1.[Na+].[Na+].[Na+].[Na+].[Na+].[Na+] [Suramin hexasodium]
[12]
  Z Score: 2.284
[9]
  Z score: 2.284
[10]
  Activity: no

## Piribedil maleate
[4]
  Z Score: −0.3345
[2]
  Z score: −0.334
[1]
  Activity: no

## Cn1c(=O)c2[nH]c(C3CCCC3)nc2n(C)c1=O [8-Cyclopentyl-1,3-dimethylxanthine]
168 h, 3 µM
  Z Score: −0.1248
  Z score: −0.125
[6]
  Activity: no

## Cl.Fc1ccc(C(OCCCc2c[nH]cn2)c2ccc(F)cc2)cc1
  Z Score: −0.01466

## CC(=O)OCC1=C(C(=O)O)N2C(=O)[C@@H](NC(=O)Cc3cccs3)[C@H]2SC1 [Cephalothin sodium]
[12]
  Z Score: 2.264
[2]
  Z score: 2.264
[1]
  Activity: no

## NC[C@H](O)c1ccc(O)c(O)c1.O=C(O)C(O)C(O)C(=O)O [(B1)-Norepinephrine (+)bitartrate]
  Z Score: 0.09903

## N=C(N)NC(CCC(=O)O)C(=O)O (stereo not drawn) [alpha-Guanidinoglutaric acid]
168 h, 3 µM
  Z Score: −9.041
  Z score: −9.041
[1]
  Activity: yes

## COC(=O)C(C)(N)Cc1ccc(O)cc1.Cl (racemic) [alpha-Methyl-DL-tyrosine methyl ester hydrochloride]
168 h, 3 µM
  Z Score: 0.3703
  Z score: 0.370
[1]
  Activity: no

## O=C(Cc1ccc(Cl)c(Cl)c1)OCCN1CCCC1 [AC 915 oxalate]
[4]
  Z Score: −0.8903
[2]
  Z score: −0.890
[1]
  Activity: no

## Nc1ncnc2c1ncn2[C@@H]1O[C@H](COP(=O)(O)CP(=O)(O)OP(=O)([O-])[O-])[C@H](O)C1O.[Li+].[Li+] (stereo partly drawn)
[11]
  Z Score: −1.29
[2]
  Z score: −1.290
[7]
  Activity: no

## O=C(O)c1cccnc1C(=O)O [Quinolinic acid]
168 h, 3 µM
  Z Score: −2.419
  Z score: −2.419
[7]
  Activity: yes

## NC(Cc1ccc(Cl)cc1)C(=O)O (stereo not drawn) [(B1)-p-Chlorophenylalanine]
  Z Score: −0.2471

## CCCCc1oc2ccccc2c1C(=O)c1cc(I)c(OCCN(CC)CC)c(I)c1 [Amiodarone hydrochloride]
[8]
  Z Score: 0.9292
[9]
  Z score: 0.929
[10]
  Activity: no

## C[C@]12CC[C@@H](O)C[C@@H]1CC[C@@H]1[C@@H]2CC[C@]2(C)[C@@H](C(=O)CO)CC[C@@H]12
  Z Score: 0.4441
[2]
  Z score: 0.444
[3]
  Activity: no

## CC[C@@]1(O)C(=O)OCc2c1cc1n(c2=O)Cc2cc3ccccc3nc2-1 [(S)-(+)-Camptothecin]
[11]
  Z Score: −9.67
[2]
  Z score: −9.670
[7]
  Activity: yes

## CC/C(=C(\c1ccccc1)c1ccc(OCCN(C)C)cc1)c1ccccc1 [Tamoxifen citrate]
  Activity: yes
[11]
  Z Score: −10.64
[2]
  Z score: −10.643

## O=C(O)c1cc(O)c2ccc(Cl)cc2n1 [7-Chlorokynurenic acid]
  Z Score: 1.241
[5]
  Z score: 1.241
[6]
  Activity: no

## CNc1cc(NS(=O)(=O)c2ccc(N)cc2)nc(NC)n1.Cl.Cl [Ro 04-6790 dihydrochloride]
  Z Score: 0.3428
[2]
  Z score: 0.343
[3]
  Activity: no

## O=C1Cc2c([nH]c3ccc(Br)cc23)-c2ccccc2N1 [Kenpaullone]
168 h, 3 µM
  Z Score: −1.555
  Z score: −1.555
[6]
  Activity: no

## CC#C[C@]1(O)CC[C@H]2[C@@H]3CCC4=CC(=O)CCC4=C3[C@@H](c3ccc(N(C)C)cc3)C[C@@]21C [Mifepristone]
168 h, 3 µM
  Z Score: −1.97
  Z score: −1.970
[7]
  Activity: no

## O=C1CC[C@@]2(O)[C@H]3Cc4ccc(O)c5c4[C@@]2(CCN3CC2CC2)[C@H]1O5 [Naltrexone hydrochloride]
[8]
  Z Score: 0.3891
[2]
  Z score: 0.389
[1]
  Activity: no

## C[C@@]12C(=O)OC(=O)[C@]1(C)[C@H]1CC[C@@H]2O1 [Cantharidin]
  Z Score: −0.5781
[5]
  Z score: −0.578
[6]
  Activity: no

## CN[C@H](CC(C)C)C(=O)N[C@H]1C(=O)N[C@@H](CC(N)=O)C(=O)N[C@H]2C(=O)N[C@H]3C(=O)N[C@H](C(=O)N[C@H](C(=O)O)c4cc(O)cc(O)c4-c4cc3ccc4O)[C@H](O)c3ccc(c(Cl)c3)Oc3cc2cc(c3O[C@@H]2O[C@H](CO)[C@@H](O)[C@H](O)[C@H]2O[C@H]2C[C@](C)(N)[C@H](O)[C@H](C)O2)Oc2ccc(cc2Cl)[C@H]1O.Cl
[8]
  Z Score: −0.06352
[9]
  Z score: −0.064
[10]
  Activity: no

## C[C@](N)(CCP(=O)(O)O)C(=O)O.Cl [(S)-MAP4 hydrochloride]
  Z Score: −0.5525
[2]
  Z score: −0.553
[7]
  Activity: no

## COc1ccc(Cc2nccc3cc(OC)c(OC)cc23)cc1OC [Papaverine hydrochloride]
[4]
  Z Score: −0.2992
[2]
  Z score: −0.299
[3]
  Activity: no

## NC(=O)COc1c(F)cc(SCCNS(=O)(=O)c2ccccc2)cc1F [2,6-Difluoro-4-[2-(phenylsulfonylamino)ethylthio]phenoxyacetamide]
  Z Score: −0.4983
[2]
  Z score: −0.498
[7]
  Activity: no

## O=C(O)CCC(=O)N1CCC[C@H]1C(=O)O [N-Succinyl-L-proline]
[8]
  Z Score: 0.7246
[2]
  Z score: 0.725
[3]
  Activity: no

## Br.Br.N=C(N)SCCc1cccc(CCSC(=N)N)c1 [1,3-PBIT dihydrobromide]
  Z Score: 2.221
[2]
  Z score: 2.221
[3]
  Activity: no

## Cc1scc2c1N(C(=O)CN1CCN(C)CC1)c1ccccc1NC2=O [Telenzepine dihydrochloride]
168 h, 3 µM
  Z Score: 0.3813
  Z score: 0.381
[10]
  Activity: no

## CNCC(O)c1ccc(O)c(O)c1.Cl (racemic) [(±)-Epinephrine hydrochloride]
[2]
  Z score: −0.328
[6]
  Activity: no

## NC(=O)OCC(COC(N)=O)c1ccccc1 [Felbamate]
[4]
  Z Score: −0.4586
[2]
  Z score: −0.459
[6]
  Activity: no

## COc1ccc2c(c1)c(CC(=O)O)c(C)n2Cc1ccc(Cl)cc1 [1-(4-Chlorobenzyl)-5-methoxy-2-methylindole-3-acetic acid]
[11]
  Z Score: −1.584
[9]
  Z score: −1.584
[10]
  Activity: no

## Nn1nnc2ccccc21 [1-Aminobenzotriazole]
168 h, 3 µM
  Z Score: 0.5236
  Z score: 0.524
[10]
  Activity: no

## CCn1c(=O)c2[nH]c(-c3ccccc3)nc2n(CC)c1=O [1,3-Diethyl-8-phenylxanthine]
168 h, 3 µM
  Z Score: 2.005
  Z score: 2.005
[10]
  Activity: no

## CCCC(CCC)C(=O)O.[Na] [Valproic acid sodium]
[4]
  Z Score: −0.09493
[2]
  Z score: −0.095
[7]
  Activity: no

## NC(CO)(CO)CO.O=C(c1ccccc1)c1ccc2n1CCC2C(=O)O (stereo not drawn) [Ketorolac tris salt]
[4]
  Z Score: −0.7256
[2]
  Z score: −0.726
[6]
  Activity: no

## N.S=C(S)N1CCCC1 [Ammonium pyrrolidinedithiocarbamate]
  Activity: no
[4]
  Z Score: −0.4168
[2]
  Z score: −0.417
